In patent publication US20100197752A1, “UROCANIC ACID DERIVATIVES USEFUL FOR THE TREATMENT OF IMMUNE-RELATED AND INFLAMMATORY DISEASES” (priority 2007, published 2010):

How the values were obtained:
BALB/c mice = experiment: Suppression of prolonged contact hypersensitivity (P-CHS), oxazolone-induced ear swelling; assay type: in vivo; details: for sequence from high to low effectiveness, suppressive effect on P-CHS response (ear swelling): BALB/c mice, oxazolone, topical twice daily, averaged from 2-3 experiments, compared to placebo (100% ear swelling), FIG. 3; for immunosuppressive, e.g. anti-inflammatory properties (efficacy): conclusion from P-CHS in BALB/c mice, topical application
Procedure: Suppression of prolonged contact hypersensitivity (P-CHS) by ethyl imidazole-4-acetate in BALB/c mice.
Ethyl imidazole-4-acetate was dissolved in ethanol/water 1:1 in a concentration of 5%. The topical application of ethanol/water 1:1 alone served as full-response control. Ethanol/water test solutions were topically applied with a pipette in aliquots of 20 μL/ear.
Mice were sensitized with 10 μl 1% oxazolone in acetone on […] in all experiments on the outside of both ears. On day 0 mice were challenged with 10 μl 0.5% oxazolone in acetone on both ears. Repeated elicitations were applied on day 2, 4, 7, 9. Applied oxazolone concentrations in acetone were 0.5%, 0.25%, 0.25%, 0.25%, respectively. From day 1 up to one day before the final day of the experiment, twice-daily doses of test solutions were topically given at approximately 11 AM and […]. Duplicate ear thickness measurements were made on day 0, 1, 3, 5, 8, 10 and 11 prior to any daily topical application.
The use of mice was allowed by the Committee of Experimental Animal handling of the Academic Medical Center Amsterdam. Female BALB/c mice (8-10 weeks of age) were purchased from Charles River (L′Arbresle, France) and kept in light, humidity and temperature-controlled rooms in the animal facility, 1-2 weeks before the experiment. They were fed ad libitum with water and CRM-E food van Special Diets services (SDS, Witham, Essex, UK).
Data points, obtained with test compound administration, were compared to the data, obtained with vehicle (ethanol/water 1:1) administration and were statistically processed using Welch's unpaired t-test.

[1] = test system: IL-10 production in whole blood; experiment: Effect of imidazole-derivates on the production of IL-10 in whole blood following LPS stimulation; assay type: cell-based; details: LPS stimulation (10 ng/ml), FIG. 4; for IL-10 production: 10−^4 Mol/l in whole blood
Text: Effect of imidazole-derivates on the production of IL-10
IL-10 is a cytokine that dims inflammatory immune responses. […] These findings in vitro have larger significance in a complete test system as whole blood, employed here, than in a monoculture test system (FIG. 4).
FIG. 4. Effect of imidazole-derivates on the production of IL-10 in whole blood

mice = details: Kammeyer et al. 2004, Norval et al. 1995, Noonan and De Fabo 1992; cited from earlier work

Structure (SMILES) | sequence from high to low effectiveness, suppressive effect on P-CHS response (ear swelling) (BALB/c mice) | immunosuppressive, e.g. anti-inflammatory properties (efficacy) (BALB/c mice) | IL-10 production [1] | IL-10 production, positive control compared with the imidazole-derivates ([1]; whole blood) | contact hypersensitivity (CHS) response (mice)
CCOC(=O)Cc1c[nH]cn1 [Et-ImAc, ethyl imidazole-4-acetate] | prednisolone>ethyl imidazole-4-acetate (Et-ImAc)>imidazole-4-acetic acid (ImAc) | stronger than that of ImAc | upregulation of IL-10 | – | –
NCCc1c[nH]cn1 [Histamine] | – | – | – | stronger effect on IL-10 production than the imidazole-derivates | –
O=C(O)Cc1c[nH]cn1 [ImAc, Imidazole-4-acetic acid] | ethyl imidazole-4-acetate (Et-ImAc)>imidazole-4-acetic acid (ImAc)=imidazole-4-carboxylic acid | weak to moderate immunosuppressant | upregulation of IL-10 | – | suppress the contact hypersensitivity (CHS) response in mice
O=C(O)c1c[nH]cn1 [ImCOOH, imidazole-4-carboxylic acid] | – | – | upregulation of IL-10 | – | –
O=C([O-])c1c[nH]cn1.[Na+] [imidazole-4-carboxylic acid, imidazole-4-carboxylic acid, sodium salt] | imidazole-4-acetic acid (ImAc)=imidazole-4-carboxylic acid | – | – | – | –
C[C@]12C=CC(=O)C=C1CC[C@@H]1[C@@H]2[C@@H](O)C[C@@]2(C)[C@H]1CC[C@]2(O)C(=O)CO [prednisolone] | prednisolone>ethyl imidazole-4-acetate (Et-ImAc) | classical strong suppressant | – | – | –
